Assay type in all cases: cell-based
Test [1] has as its system renal carcinoma cells (786-O). Put plainly: In vitro potency (CellTiter-Glo, 96 h), 786-O. As to conditions: Homo sapiens, 786-0, 96 h, CellTiter-Glo after 96 h exposure. An outline of the steps: (§1)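 Four-day continuous exposure at 37 °C to serially diluted ADC or free camptothecin payload, in RPMI 1640 with 20% FBS after 24 h pre-plating. Luminescent signal gave IC50 (ng/mL; nmol/L).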
(In general: ATP-based viability assays read luminescence as a measure of living cells.)

For the next test, the system named is melanoma cells (A2058). Put plainly: In vitro potency (CellTiter-Glo, 96 h), A2058. To be noted: Homo sapiens, A2058, 96 h, read-out: IC50 (nmol/L) A2058. An outline of the steps: (§2)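 Following a 24 h seeding period in 20% FBS-supplemented RPMI 1640, log-phase cells receive graded concentrations of conjugate. Incubation runs for 4 days at 37 °C, after which luminescence is recorded and IC50 calculated in ng/mL.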

The test system of test [2] is non-small-cell lung cancer cells (Calu1). Put plainly: In vitro potency (CellTiter-Glo, 96 h), Calu1. To be noted: Homo sapiens, Calu-1, 96 h, read-out: IC50 (nmol/L) Calu1. The gist of the method: as §2
The subject of test [3] is breast cancer cells (MDA-MB-231). The experiment in a line: In vitro potency (CellTiter-Glo, 96 h), MDA-MB-231. As to conditions: Homo sapiens, MDA-MB-231, 96 h, CellTiter-Glo after 96 h exposure. An outline of the steps: as §1
In test [4] the test system is pancreatic cancer cells (BxPC3). Put plainly: In vitro potency (CellTiter-Glo, 96 h), BxPC3. To be noted: Homo sapiens, BXPC-3, 96 h, CellTiter-Glo after 96 h exposure. The gist of the method:
as §1

The test system of test [5] is acute myeloid leukemia cells (MOLM-13). The experiment in a line: In vitro potency (CellTiter-Glo, 96 h), MOLM-13. To be noted: Homo sapiens, MOLM-13, 96 h, CellTiter-Glo after 96 h exposure. An outline of the steps:
as §1

The subject of test [6] is anaplastic large cell lymphoma cells (Karpas299). Put plainly: In vitro potency (CellTiter-Glo, 96 h), Karpas299. As to conditions: Homo sapiens, KARPAS-299, 96 h, CellTiter-Glo after 96 h exposure. The gist of the method:
as §1

A further test concerns Ls174T cells. The experiment in a line: In vitro potency (CellTiter-Glo, 96 h), Ls174T. As to conditions: Homo sapiens, LS174T, CellTiter-Glo after 96 h exposure. The gist of the method:
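Antibody-drug conjugates, prepared as dilution series in culture medium, were added to cells seeded a day earlier in RPMI 1640 supplemented with 20% FBS. After four days at 37 °C, luminescence measured growth inhibition.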

Test [7] concerns B-lymphocyte cancer cells (SU-DHL4). Put plainly: In vitro potency (CellTiter-Glo, 96 h), SU-DHL-4. To be noted: Homo sapiens, SU-DHL-4, 96 h, CellTiter-Glo after 96 h exposure. An outline of the steps:
as §2

Test [8] deals with anaplastic large cell lymphoma cells (DELBVR). The experiment in a line: In vitro potency (CellTiter-Glo, 96 h), DELBVR. The gist of the method:
as §1

The test system of test [9] is anaplastic large cell lymphoma cells (DEL). The experiment in a line: In vitro potency (CellTiter-Glo, 96 h), DEL. The gist of the method:
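Log-phase cells were seeded for 24 h in RPMI 1640 with 20% FBS, then exposed to serially diluted antibody-drug conjugates or free camptothecin drug for 4 days at 37 °C. Growth inhibition was read by luminescence, and IC50 values were reported in ng/mL and nmol/L.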

Test [10] has as its system Hodgkin's lymphoma cells (L540cy). Put plainly: In vitro potency (CellTiter-Glo, 96 h), L540cy. An outline of the steps:
as §1

Setting [11] is: CPT free drugs, Table 24, read-out: IC50 (nmol/L) 786-O.
[12] abbreviates: CPT free drugs, Table 24, CellTiter-Glo after 96 h exposure.
The mark [13] stands for this setting: CPT free drugs, Table 24, read-out: IC50 (nmol/L) MDAMB231.
Where [14] appears, read: CPT free drugs, Table 24, read-out: IC50 (nmol/L) BxPC3.
Where [15] appears, read: CPT free drugs, Table 24, read-out: IC50 (nmol/L) MOLM-13.
[16] abbreviates: CPT free drugs, Table 24, read-out: IC50 (nmol/L) Karpas299.
[17] abbreviates: CPT free drugs, Table 24, read-out: IC50 (nmol/L) Ls174T.
Where [18] appears, read: CPT free drugs, Table 24, read-out: IC50 (nmol/L) SU-DHL-4.
Where [19] appears, read: CPT free drugs, Table 24, CellTiter-Glo after 96 h exposure, read-out: IC50 (nmol/L) DELBVR.
[20] abbreviates: CPT free drugs, Table 24, CellTiter-Glo after 96 h exposure, read-out: IC50 (nmol/L) DEL.
Setting [21] is: CPT free drugs, Table 24, CellTiter-Glo after 96 h exposure, read-out: IC50 (nmol/L) L540cy.

Consider nine molecules from patent US20240207427A1, “SELECTIVE DRUG RELEASE FROM INTERNALIZED CONJUGATES OF BIOLOGICALLY ACTIVE COMPOUNDS” (priority 2021, published 2024).

Like-named read-outs stand apart in the source and are kept apart here.

On to `CC[C@@]1(O)C(=O)OCc2c1cc1n(c2=O)Cc2c-1nc1cc3c(cc1c2CN)CCC3` [Compound 2v], for which the IC50 stood at 33 nmol/L in test [1] (setting [11]); 19 nmol/L in the test on melanoma cells (A2058) (setting [12]); 247 nmol/L in [2] (setting [12]); 34 nmol/L in test [3] (setting [13]); 165 nmol/L in [4] (setting [14]); 350 nmol/L in test [5] (setting [15]). Also, the IC50 in test [6] (setting [16]) came to 37 nmol/L; with Ls174T cells (setting [17]), 17 nmol/L; in test [7] (setting [18]), 33.8 nmol/L; in test [8] (setting [19]), 14 nmol/L; in test [9] (setting [20]), 9 nmol/L; in test [10] (setting [21]), 19 nmol/L.

As to `CCc1cc2nc3c(c(CN)c2c(F)c1C)Cn1c-3cc2c(c1=O)COC(=O)[C@]2(O)CC` [Compound 2w], the IC50 is 649 nmol/L in test [1] (setting [11]); 286 nmol/L in the test on melanoma cells (A2058) (setting [12]); greater than 1000 nmol/L in test [2] (setting [12]); greater than 1000 nmol/L in [3] (setting [13]); greater than 1000 nmol/L in test [4] (setting [14]); greater than 1000 nmol/L in [5] (setting [15]). Besides, the IC50 is greater than 1000 nmol/L in test [6] (setting [16]); 843 nmol/L in the test on Ls174T cells (setting [17]); 958 nmol/L in test [7] (setting [18]); 271 nmol/L in [8] (setting [19]); 283 nmol/L in [9] (setting [20]); 922 nmol/L in [10] (setting [21]).

For `CC[C@@]1(O)C(=O)OCc2c1cc1n(c2=O)Cc2c-1nc1cc(F)c(OC)c(F)c1c2CN` [Compound 2x], the IC50 was 18 nmol/L in test [1] (setting [11]); 5 nmol/L in the test with melanoma cells (A2058) (setting [12]); 27 nmol/L in [2] (setting [12]); 91 nmol/L in test [3] (setting [13]); 34 nmol/L in test [4] (setting [14]); 19 nmol/L in [5] (setting [15]). The IC50 was determined as 11 nmol/L in [6] (setting [16]); 16 nmol/L with Ls174T cells (setting [17]); 7 nmol/L in test [7] (setting [18]); 5 nmol/L in test [8] (setting [19]); 4 nmol/L in test [9] (setting [20]); 6 nmol/L in test [10] (setting [21]).

`CC[C@@]1(O)C(=O)OCc2c1cc1n(c2=O)Cc2c-1nc1cc(F)c(C)c(Cl)c1c2CN` [Compound 2y]: the IC50 in test [1] (read-out: IC50 (nmol/L) 786-O, CPT free drugs, Table 24) came to 3 nmol/L; in the test with melanoma cells (A2058) it was 1 nmol/L; in test [2], 15 nmol/L; in [3] (read-out: IC50 (nmol/L) MDAMB231, CPT free drugs, Table 24), 15 nmol/L; in [4] (read-out: IC50 (nmol/L) BxPC3, CPT free drugs, Table 24) it was 6 nmol/L; in test [5] (read-out: IC50 (nmol/L) MOLM-13, CPT free drugs, Table 24), 16 nmol/L. Moreover, the IC50 in test [6] (read-out: IC50 (nmol/L) Karpas299, CPT free drugs, Table 24) stood at 2 nmol/L; in the test with Ls174T cells (96 h, read-out: IC50 (nmol/L) Ls174T, CPT free drugs, Table 24), 3 nmol/L; in test [7] (read-out: IC50 (nmol/L) SU-DHL-4, CPT free drugs, Table 24), 1 nmol/L; in test [8] (read-out: IC50 (nmol/L) DELBVR, CPT free drugs, Table 24, CellTiter-Glo after 96 h exposure) it was 1 nmol/L; in test [9] (read-out: IC50 (nmol/L) DEL, CPT free drugs, Table 24, CellTiter-Glo after 96 h exposure), 1 nmol/L; in test [10] (read-out: IC50 (nmol/L) L540cy, CPT free drugs, Table 24, CellTiter-Glo after 96 h exposure), 1 nmol/L.

As for `CC[C@@]1(O)C(=O)OCc2c1cc1n(c2=O)Cc2c-1nc1cc(OC)c(C)c(F)c1c2CN` [Compound 2z], the IC50 (in test [1] (setting [11]); in the test on melanoma cells (A2058) (setting [12]); in test [2] (setting [12]); in [3] (setting [13]); in test [4] (setting [14]); in [5] (setting [15])) was greater than 1000 nmol/L throughout. Further, the IC50 (in test [6] (setting [16]); in the test on Ls174T cells (setting [17]); in [7] (setting [18]); in test [8] (setting [19]); in [9] (setting [20]); in test [10] (setting [21])) was greater than 1000 nmol/L each time.

`CC[C@@]1(O)C(=O)OCc2c1cc1n(c2=O)Cc2c-1nc1ccc(O)cc1c2CN` [Compound 3a]: the IC50 in test [1] (setting [11]) was 52.3 nmol/L; in the test with melanoma cells (A2058) (setting [12]) it was 16 nmol/L; in [2] (setting [12]) it was 388 nmol/L; in [3] (setting [13]) it was 38.5 nmol/L; in [4] (setting [14]), 135 nmol/L; in [5] (setting [15]) it was 58 nmol/L. Also, the IC50 in test [6] (setting [16]) amounted to 59.4 nmol/L; in the test with Ls174T cells (setting [17]), 37.1 nmol/L; in test [7] (setting [18]), 16.4 nmol/L; in test [8] (setting [19]), 14 nmol/L; in test [9] (setting [20]), 10 nmol/L; in [10] (setting [21]), 18.2 nmol/L.

Consider `CC[C@@]1(O)C(=O)OCc2c1cc1n(c2=O)Cc2c-1nc1cc(F)c(O)cc1c2CN` [Compound 3b], for which the IC50 (in test [1] (setting [11]); in the test with melanoma cells (A2058) (setting [12]); in test [2] (setting [12]); in test [3] (setting [13]); in test [4] (setting [14]); in test [5] (setting [15])) was greater than 1000 nmol/L throughout. The IC50 (in test [6] (setting [16]); in the test on Ls174T cells (setting [17]); in [7] (setting [18]); in test [8] (setting [19]); in [9] (setting [20]); in test [10] (setting [21])) was greater than 1000 nmol/L in each case.

Consider `CC[C@@]1(O)C(=O)OCc2c1cc1n(c2=O)Cc2c-1nc1cc(F)c(O)c3c1c2CNC3` [Compound 3c], for which the IC50 (in [1] (setting [11]); with melanoma cells (A2058) (setting [12]); in test [2] (setting [12]); in test [3] (setting [13]); in test [4] (setting [14]); in test [5] (setting [15])) was greater than 1000 nmol/L each time. Further, the IC50 (in test [6] (setting [16]); in the test with Ls174T cells (setting [17]); in test [7] (setting [18]); in test [8] (setting [19]); in test [9] (setting [20]); in test [10] (setting [21])) was greater than 1000 nmol/L throughout.

In the case of `CC[C@@]1(O)C(=O)OCc2c1cc1n(c2=O)Cc2c-1nc1cc(F)c(O)c(F)c1c2CN` [Compound 3d], the IC50 (in test [1] (setting [11]); in the test on melanoma cells (A2058) (setting [12]); in test [2] (setting [12]); in [3] (setting [13]); in test [4] (setting [14]); in [5] (setting [15])) was greater than 1000 nmol/L in each case. The IC50 in test [6] (setting [16]) is greater than 1000 nmol/L; in the test with Ls174T cells (setting [17]) it was greater than 1000 nmol/L; in [7] (setting [18]), greater than 1000 nmol/L; in [8] (setting [19]), greater than 1000 nmol/L; in [9] (setting [20]), 843 nmol/L; in test [10] (setting [21]), greater than 1000 nmol/L.
